Assay results: patent US4178442A, “Novel cinnamoyles piperazines and homopiperazines, the method of preparing them and their application in therapeutics” (Delalande S. A., priority 1977, dated 1979)
Where a name gives a salt, the structure may show the parent alone. Read-outs that look alike come from different tables or passages of the source.

How the values were obtained:
in vivo = conditions: for mortality: read-out: Toxicity (Mortality); for LD50: read-out: Toxicity: LD50
Excerpt: *LD50 or percentage of mortality which is given between brackets

anaesthetized dog = assay: Antiangorous activity on anaesthetized dog: consumption of oxygen in the left ventricule and cardiac effort (KATZ's index); format: in vivo; conditions: for inhibition in vivo at 2.2 mg/kg / inhibition in vivo at 1.25 mg/kg / inhibition in vivo at 2.5 mg/kg / inhibition in vivo at […] / inhibition in vivo at 4.5 mg/kg / inhibition in vivo at 0.14 mg/kg / inhibition in vivo at 1.02 mg/kg / inhibition in vivo at 2.3 mg/kg / inhibition in vivo at 2.4 mg/kg: Canis lupus familiaris, iv; for inhibition in vivo at […]: 0.15 mg/kg i.v. slow perfusion
Description: The antiangorous activity was tested on an anaesthetized dog (sodium pentobarbital 30 mg/kg/i.v.).
The consumption of oxygen in the left ventricule was estimated by the product of the coronary venous flow and the coronary arteriovenous difference in oxygen (% volume).
The coronary venous flow was measured at the coronary venous sinus by means of a modified Morawitz cannula, introduced under radioscopic control.
The cardiac effort was estimated according to KATZ's index, by the product of the average arterial pressure and the cardiac frequency.
The cardiac frequency was estimated from the electrocardiogram recorded with D2 derivation.
It should be noted that the compounds tested were injected intravenously with slow perfusion.

[1] = 2.5 mg/kg i.v. slow perfusion, read-out: Diminution in consumption of O2
[2] = 2.5 mg/kg i.v. slow perfusion, read-out: Diminution in the cardiac effort (IK)
[3] = read-out: Diminution in consumption of O2
[4] = read-out: Diminution in the cardiac effort (IK)

Row | Compound | LD50 (in vivo; iv) | Diminution in consumption of O2: in time (anaesthetized dog; 2.5 mg/kg i.v. slow perfusion) | Diminution in the cardiac effort (IK): in time (anaesthetized dog; 2.5 mg/kg i.v. slow perfusion) | inhibition in vivo at 2.5 mg/kg (anaesthetized dog; [1]) | inhibition in vivo at 2.5 mg/kg (anaesthetized dog; [2]) | other results
1 | COc1cc(/C=C/C(=O)N2CCN(CC(O)COc3ccc(C(C)=O)cc3)CC2)cc(OC)c1OC (centres unmarked) [760 385] | – | – | – | – | – | mortality (in vivo; iv, 351 mg/kg i.v.): 10%; Diminution in consumption of O2: in time (anaesthetized dog; 2.2 mg/kg i.v. slow perfusion): 15 min; Diminution in the cardiac effort (IK): in time (anaesthetized dog; 2.2 mg/kg i.v. slow perfusion): 15 min; inhibition in vivo at 2.2 mg/kg (anaesthetized dog; 2.2 mg/kg i.v. slow perfusion, read-out: Diminution in consumption of O2): 65%; inhibition in vivo at 2.2 mg/kg (anaesthetized dog; 2.2 mg/kg i.v. slow perfusion, read-out: Diminution in the cardiac effort (IK)): 16%
2 | CNC(=O)c1ccc(OCC(O)CN2CCN(C(=O)/C=C/c3cc(OC)c(OC)c(OC)c3)CC2)cc1 (centres unmarked) [770 135] | – | – | – | – | – | mortality (in vivo; iv, 400 mg/kg i.v.): 0%; Diminution in consumption of O2: in time (anaesthetized dog; 1.25 mg/kg i.v. slow perfusion): 30 min; Diminution in the cardiac effort (IK): in time (anaesthetized dog; 1.25 mg/kg i.v. slow perfusion): 30 min; inhibition in vivo at 1.25 mg/kg (anaesthetized dog; 1.25 mg/kg i.v. slow perfusion, read-out: Diminution in consumption of O2): 40%; inhibition in vivo at 1.25 mg/kg (anaesthetized dog; 1.25 mg/kg i.v. slow perfusion, read-out: Diminution in the cardiac effort (IK)): 28%
3 | COc1cc(/C=C/C(=O)N2CCN(CC(O)COc3ccc([N+](=O)[O-])cc3Cl)CC2)cc(OC)c1OC (centres unmarked) [771 124] | 270 mg/kg | 15 min | 23 min | 34% | 13% | –
4 | COc1cc(/C=C/C(=O)N2CCN(CC(O)COc3ccc(NC(C)=O)c4c3CCCC4)CC2)cc(OC)c1OC (centres unmarked) [780 044] | – | 30 min | 15 min | 49% | 36% | mortality (in vivo; iv, 400 mg/kg i.v.): 10%
5 | CNC(=O)Nc1ccc(OCC(O)CN2CCN(C(=O)/C=C/c3cc(OC)c(OC)c(OC)c3)CC2)c2c1CCCC2 (centres unmarked) [771 157] | 210 mg/kg | 30 min | 30 min | 53% | 46% | –
6 | COc1cc(/C=C/C(=O)N2CCN(CC(O)COc3ccc(C(C)C)cc3)CC2)cc(OC)c1OC (centres unmarked) [770 858] | 260 mg/kg | – | – | – | – | inhibition in vivo at […] (anaesthetized dog; [3]): 16%; inhibition in vivo at […] (anaesthetized dog; [4]): 15%
7 | COc1cc(/C=C/C(=O)N2CCN(CC(O)COc3ccc(C)c4c3OCCO4)CC2)cc(OC)c1OC (centres unmarked) [760 847] | – | 60 min | – | 47% | 14% | mortality (in vivo; iv, 169 mg/kg i.v.): 20%
8 | COc1cc(/C=C/C(=O)N2CCN(CC(O)COCc3ccccc3)CC2)cc(OC)c1OC (centres unmarked) [770 276] | 248 mg/kg | 23 min | – | 59% | – | –
9 | COc1cc(/C=C/C(=O)N2CCN(CC(O)COc3ccc(C(C)=O)c4c3OCCO4)CC2)cc(OC)c1O (centres unmarked) [770 274, 1-[3-(4-acetyl-2,3-ethylenedioxy)phenoxy-2-hydroxy]propyl-4-(3,5-dimethoxy-4-hydroxycinnamoyl)piperazine oxalate] | – | 30 min | 15 min | 41% | 10% | mortality (in vivo; iv, 336 mg/kg i.v.): 30%
10 | COc1cc(/C=C/C(=O)N2CCN(CC(O)COc3ccccc3C#N)CC2)cc(OC)c1OC (centres unmarked) [760 389] | 245 mg/kg | – | – | – | – | Diminution in consumption of O2: in time (anaesthetized dog; 4.5 mg/kg i.v. slow perfusion): 60 min; Diminution in the cardiac effort (IK): in time (anaesthetized dog; 4.5 mg/kg i.v. slow perfusion): 60 min; inhibition in vivo at 4.5 mg/kg (anaesthetized dog; 4.5 mg/kg i.v. slow perfusion, read-out: Diminution in consumption of O2): 70%; inhibition in vivo at 4.5 mg/kg (anaesthetized dog; 4.5 mg/kg i.v. slow perfusion, read-out: Diminution in the cardiac effort (IK)): 55%
11 | COc1cc(/C=C/C(=O)N2CCN(CC(O)COc3ccc([N+](=O)[O-])c(C)c3)CC2)cc(OC)c1OC (centres unmarked) [770 963] | 190 mg/kg | 30 min | 30 min | 58% | 66% | –
12 | COc1cc(/C=C/C(=O)N2CCN(CC(O)COc3ccc(C(C)=O)c4c3OCCO4)CC2)cc(OC)c1OC(C)C (centres unmarked) [770 727] | 130 mg/kg | 15 min | 30 min | 57% | 27% | –
13 | CCOC(=O)Cc1ccc(OCC(O)CN2CCN(C(=O)/C=C/c3cc(OC)c(OC)c(OC)c3)CC2)c2c1OCCO2 (centres unmarked) [770 312] | 259 mg/kg | – | – | – | – | Diminution in consumption of O2: in time (anaesthetized dog; 0.14 mg/kg i.v. slow perfusion): 30 min; inhibition in vivo at 0.14 mg/kg (anaesthetized dog; 0.14 mg/kg i.v. slow perfusion, read-out: Diminution in consumption of O2): 30%; inhibition in vivo at 0.14 mg/kg (anaesthetized dog; 0.14 mg/kg i.v. slow perfusion, read-out: Diminution in the cardiac effort (IK)): 9%
14 | CNC(=O)Nc1ccc(OCCCN2CCN(C(=O)/C=C/c3cc(OC)c(OC)c(OC)c3)CC2)c2c1OCCO2 [780 040] | – | 15 min | – | 59% | 9% | mortality (in vivo; iv, 400 mg/kg i.v.): 30%
15 | CNC(=O)Nc1ccc(OCC(O)CN2CCN(C(=O)/C=C/c3cc(OC)c(OC)c(OC)c3)CC2)c2c1OCO2 (centres unmarked) [780 409] | – | 90 min | 90 min | 54% | 43% | mortality (in vivo; iv, 400 mg/kg i.v.): 20%
16 | CNC(=O)Nc1ccc(OCC(O)CN2CCN(C(=O)/C=C/c3cc(OC)c(OC)c(OC)c3)CC2)cc1C (centres unmarked) [770 898] | – | 45 min | 38 min | 45% | 36% | mortality (in vivo; iv, 400 mg/kg i.v.): 0%
17 | CC(=O)c1ccc(OCC(O)CN2CCN(C(=O)/C=C/c3ccc(F)cc3)CC2)c2c1OCCO2 (centres unmarked) [770 199] | 328 mg/kg | – | – | – | – | Diminution in consumption of O2: in time (anaesthetized dog; 1.02 mg/kg i.v. slow perfusion): 15 min; Diminution in the cardiac effort (IK): in time (anaesthetized dog; 1.02 mg/kg i.v. slow perfusion): 15 min; inhibition in vivo at 1.02 mg/kg (anaesthetized dog; 1.02 mg/kg i.v. slow perfusion, read-out: Diminution in consumption of O2): 29%; inhibition in vivo at 1.02 mg/kg (anaesthetized dog; 1.02 mg/kg i.v. slow perfusion, read-out: Diminution in the cardiac effort (IK)): 5%
18 | COc1cc(/C=C/C(=O)N2CCN(CC(O)COc3cccc(C#N)c3)CC2)cc(OC)c1OC (centres unmarked) [760 784] | 372 mg/kg | – | – | – | – | Diminution in consumption of O2: in time (anaesthetized dog; 2.3 mg/kg i.v. slow perfusion): 30 min; Diminution in the cardiac effort (IK): in time (anaesthetized dog; 2.3 mg/kg i.v. slow perfusion): 30 min; inhibition in vivo at 2.3 mg/kg (anaesthetized dog; 2.3 mg/kg i.v. slow perfusion, read-out: Diminution in consumption of O2): 44%; inhibition in vivo at 2.3 mg/kg (anaesthetized dog; 2.3 mg/kg i.v. slow perfusion, read-out: Diminution in the cardiac effort (IK)): 12%
19 | COc1cc(/C=C/C(=O)N2CCN(CC(O)COc3cc(OC)c(OC)c(OC)c3C(C)=O)CC2)cc(OC)c1OC (centres unmarked) [760 781] | – | – | – | – | – | mortality (in vivo; iv, 377 mg/kg i.v.): 0%; Diminution in consumption of O2: in time (anaesthetized dog; 2.4 mg/kg i.v. slow perfusion): 90 min; Diminution in the cardiac effort (IK): in time (anaesthetized dog; 2.4 mg/kg i.v. slow perfusion): 45 min; inhibition in vivo at 2.4 mg/kg (anaesthetized dog; 2.4 mg/kg i.v. slow perfusion, read-out: Diminution in consumption of O2): 70%; inhibition in vivo at 2.4 mg/kg (anaesthetized dog; 2.4 mg/kg i.v. slow perfusion, read-out: Diminution in the cardiac effort (IK)): 15%
20 | CCC(=O)c1ccc(OCC(O)CN2CCN(C(=O)/C=C/c3cc(OC)c(OC)c(OC)c3)CC2)cc1 (centres unmarked) [770 854] | – | 40 min | 40 min | 41% | 18% | mortality (in vivo; iv, 300 mg/kg i.v.): 20%
21 | CCCNC(=O)Nc1ccc(OCC(O)CN2CCN(C(=O)/C=C/c3cc(OC)c(OC)c(OC)c3)CC2)c2c1OCCO2 (centres unmarked) [770 483] | – | – | – | – | – | mortality (in vivo; po, p.o.: 2000 mg/kg): 0%; inhibition in vivo at […] (anaesthetized dog; [3]): 74%; inhibition in vivo at […] (anaesthetized dog; [4]): 16%
22 | CCCC(=O)Nc1ccc(OCC(O)CN2CCN(C(=O)/C=C/c3cc(OC)c(OC)c(OC)c3)CC2)cc1 (centres unmarked) [760 892] | – | 60 min | 45 min | 74% | 22% | mortality (in vivo; iv, 400 mg/kg i.v.): 40%
